Measured values as given in US12679843B2, “Pyrrolopyrimidine amines as complement inhibitors” (BioCryst Pharmaceuticals, Inc., priority 2020, dated 2026).

Each compound was assayed against Factor D (Homo sapiens, UniProt P00746) (assay: Factor D esterolytic assay (Z-Lys-SBzl thioester substrate, DTNB, 405 nm)). Details: substrate Z-Lys-SBzl 1.29 mM, 100 mM HEPES, 500 mM NaCl, pH 7.5, 10% DMSO, tested a minimum of three times.
Format: biochemical
How it was run: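 Run in pH 7.5 HEPES (100 mM) with 500 mM NaCl and 10% DMSO, with compound preincubated at room temperature or not before adding 1.29 mM Z-Lys-SBzl. Free thiol released by Factor D reacts with DTNB, and rate is followed at 405 nm minus 690 nm over 600 s. IC50 derives from rate-based inhibition, minimum three replicates.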

Factor D, sequence (P00746 26-253): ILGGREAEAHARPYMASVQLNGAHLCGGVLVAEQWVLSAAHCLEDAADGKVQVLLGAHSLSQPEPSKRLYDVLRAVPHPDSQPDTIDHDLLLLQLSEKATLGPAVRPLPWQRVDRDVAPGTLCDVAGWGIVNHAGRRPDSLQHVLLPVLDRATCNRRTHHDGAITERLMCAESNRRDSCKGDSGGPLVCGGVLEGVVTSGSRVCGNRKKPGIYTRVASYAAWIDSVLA

| IC50 | Compound |
| --- | --- |
| < 100 nM | Cc1ccc(Br)nc1NC(=O)[C@@H]1C[C@@](C)(F)CN1C(=O)Cn1c2ncnc(N)c2c2cc(C(F)(F)F)cc(C)c21 [Compound 323a, (2S,4R)-1-(2-(4-amino-8-methyl-6-(trifluoromethyl)-9H-pyrimido[4,5-b]indol-9-yl)acetyl)-N-(6-bromo-3-methylpyridin-2-yl)-4-fluoro-4-methylpyrrolidine-2-carboxamide] |
| < 100 nM | Cc1cc(C(F)(F)F)cc2c3c(N)ncnc3n(CC(=O)N3CCS[C@H]3C(=O)Nc3cccc(Br)n3)c12 [Compound 324a, (S)-3-(2-(4-amino-8-methyl-6-(trifluoromethyl)-9H-pyrimido[4,5-b]indol-9-yl)acetyl)-N-(6-bromopyridin-2-yl)thiazolidine-2-carboxamide] |
| < 100 nM | Cc1cc(C(F)(F)F)cc2c3c(N)ncnc3n(CC(=O)N3C[C@H](F)C[C@H]3C(=O)Nc3cncc(Cl)n3)c12 [Compound 325c, (2S,4R)-1-(2-(4-amino-8-methyl-6-(trifluoromethyl)-9H-pyrimido[4,5-b]indol-9-yl)acetyl)-N-(6-chloropyrazin-2-yl)-4-fluoropyrrolidine-2-carboxamide] |
| < 100 nM | Cc1cc(C(F)(F)F)cc2c3c(N)ncnc3n(CC(=O)N3[C@@H]4C[C@@H]4C[C@H]3C(=O)Nc3cncc(Cl)n3)c12 [Compound 326c, (1R,3S,5R)-2-(2-(4-amino-8-methyl-6-(trifluoromethyl)-9H-pyrimido[4,5-b]indol-9-yl)acetyl)-N-(6-chloropyrazin-2-yl)-2-azabicyclo[3.1.0]hexane-3-carboxamide] |
| < 100 nM | Cc1cc(C(F)(F)F)cc2c3c(N)ncnc3n(CC(=O)N3[C@H](C(=O)Nc4cncc(Cl)n4)C[C@@]4(C)C[C@@H]34)c12 [Compound 327c, (1R,3S,5R)-2-(2-(4-amino-8-methyl-6-(trifluoromethyl)-9H-pyrimido[4,5-b]indol-9-yl)acetyl)-N-(6-chloropyrazin-2-yl)-5-methyl-2-azabicyclo[3.1.0]hexane-3-carboxamide] |
| < 100 nM | COc1cc2c(cc1C)c1c(N)ncnc1n2CC(=O)N1[C@@H]2C[C@@H]2C[C@H]1C(=O)Nc1cccc(Br)n1 [Compound 328f, (1R,3S,5R)-2-(2-(4-amino-7-methoxy-6-methyl-9H-pyrimido[4,5-b]indol-9-yl)acetyl)-N-(6-bromopyridin-2-yl)-2-azabicyclo[3.1.0]hexane-3-carboxamide] |
| < 100 nM | COc1cc2c(cc1C)c1c(N)ncnc1n2CC(=O)N1[C@H](C(=O)Nc2cccc(Br)n2)C[C@@]2(C)C[C@@H]12 [Compound 329a, (1R,3S,5R)-2-(2-(4-amino-7-methoxy-6-methyl-9H-pyrimido[4,5-b]indol-9-yl)acetyl)-N-(6-bromopyridin-2-yl)-5-methyl-2-azabicyclo[3.1.0]hexane-3-carboxamide] |
| < 100 nM | COc1cc2c3c(N)ncnc3n(CC(=O)N3[C@@H]4C[C@@H]4C[C@H]3C(=O)Nc3cccc(Br)n3)c2cc1F [Compound 330f, (1R,3S,5R)-2-(2-(4-amino-7-fluoro-6-methoxy-9H-pyrimido[4,5-b]indol-9-yl)acetyl)-N-(6-bromopyridin-2-yl)-2-azabicyclo[3.1.0]hexane-3-carboxamide] |
| < 100 nM | COc1cc2c3c(N)ncnc3n(CC(=O)N3[C@H](C(=O)Nc4cccc(Br)n4)C[C@@]4(C)C[C@@H]34)c2cc1F [Compound 331a, (1R,3S,5R)-2-(2-(4-amino-7-fluoro-6-methoxy-9H-pyrimido[4,5-b]indol-9-yl)acetyl)-N-(6-bromopyridin-2-yl)-5-methyl-2-azabicyclo[3.1.0]hexane-3-carboxamide] |
| < 100 nM | Cc1ccc(Cl)nc1NC(=O)[C@@H]1C[C@@]2(C)C[C@H]2N1C(=O)Cn1c2ncnc(N)c2c2cc(C(F)(F)F)cc(C)c21 [Compound 332c, (1R,3S,5R)-2-(2-(4-amino-8-methyl-6-(trifluoromethyl)-9H-pyrimido[4,5-b]indol-9-yl)acetyl)-N-(6-chloro-3-methylpyridin-2-yl)-5-methyl-2-azabicyclo[3.1.0]hexane-3-carboxamide] |
